The experiment concerns Eschericia coli strain ATCC25922. The experiment in a line: standard microdilution assay to determine minimum inhibitory concentrations (MICs). It is filed as cell-based. The conditions noted are these: Escherichia coli, read-out: E. coli ATCC25922 MIC. On the procedure: Minimum inhibitory concentrations (MICs) are determined by the microdilution method, typically in a final volume of 100 microliters, according to protocols outlined by The Clinical and Laboratory Standards Institute [CLSI; formerly the National Committee for Clinical Laboratory Standards (NCCLS)]. See CLSI: Methods for dilution antimicrobial susceptibility tests for bacteria that grow aerobically; approved standard-fifth edition. Wayne, Pa.: NCCLS; 2000. The assays can be also be performed in microtiter trays according to conventional methodologies as published by the CLSI. See CLSI. Methods for Dilution Antimicrobial Susceptibility Tests for Bacteria That Grow Aerobically; Approved Standard-Seventh Edition. CLSI Document M7-A7 [ISBN 1-56238-587-9] CLSI, 940 West Valley Road, Suite 1400, Wayne Pa. 19087-1898 USA, 2006).
The compounds of the present invention were tested for antimicrobial activity. The compounds were run against Eschericia coli strain ATCC25922 using a standard microdilution assay to determine minimum inhibitory concentrations (MICs). […] A “N/A” means that data is unavailable. It will be recognized by one skilled in the art that the compounds can be assessed against other bacterial organisms and that the presentation of data for activity against Eschericia coli is illustrative and in no way is intended to limit the scope of the present invention. The compounds of the present invention can be assayed against a range of other microorganisms depending upon the performance activity desired to be gathered. Furthermore, the “+”, “−”, and “N/A” representation and the selection of a cutoff value of 16 micrograms/ml is also illustrative and in no way is intended to limit the scope of the present invention.

Results on 29 compounds are retold here after patent US9023843B2, “Antimicrobial compounds and methods of making and using the same” (Melinta Therapeutics, Inc., priority 2009, dated 2015).

On to `NCCCNCc1ccc(-c2cn3c(=O)cc(-c4ccccc4F)[nH]c3nc2=O)cc1` [Compound 360], for which the minimal inhibitory concentration (MIC) is greater than 16 µg/mL.
Under `NCCCNCc1ccc(-c2cn3c(=O)cc(-c4cc(F)c(F)cc4F)[nH]c3nc2=O)cc1` [Compound 362] stands greater than 16 µg/mL.
Under `NCCCNCc1ccc(-c2cn3c(=O)cc(Cc4ccc(C(F)(F)F)cc4)[nH]c3nc2=O)cc1` [Compound 367] stands greater than 16 µg/mL.
Under `NCCCNCc1ccc(-c2cn3c(=O)cc(-c4ccccc4OC(F)(F)F)[nH]c3nc2=O)cc1` [Compound 371] stands greater than 16 µg/mL.
For the compound `O=c1nc2[nH]c(-c3ccccc3F)cc(=O)n2cc1I` [Compound 375], the MIC is greater than 16 µg/mL.
Under `NCCCNCc1ccc(-c2cn3c(=O)cc(-c4ccc(OC(F)(F)F)cc4)[nH]c3nc2=O)cc1` [Compound 377] stands greater than 16 µg/mL; under `COc1ccc(-c2cc(=O)n3cc(-c4ccc(CNCCCN)cc4)c(=O)nc3[nH]2)cc1` [Compound 378], greater than 16 µg/mL.
In the case of `COc1cc(-c2cc(=O)n3cc(-c4ccc(CNCCCN)cc4)c(=O)nc3[nH]2)cc(OC)c1OC` [Compound 379], the minimal inhibitory concentration (MIC) was greater than 16 µg/mL.
Under `NCCCNCc1ccc(-c2cn3c(=O)cc(Cc4ccc5c(c4)OCO5)[nH]c3nc2=O)cc1` [Compound 380] stands greater than 16 µg/mL; under `NCCCNCc1ccc(-c2cn3c(=O)cc(-c4ccc(Cl)c(Cl)c4)[nH]c3nc2=O)cc1` [Compound 390], greater than 16 µg/mL.
Under `NCCCNCc1ccc(-c2cn3c(=O)cc(-c4ccc(C(F)(F)F)cc4)[nH]c3nc2=O)cc1` [Compound 391] stands greater than 16 µg/mL; under `NCCCN1CCN(C(=O)Cn2cc3c(nc2=O)Nc2ccccc2O3)CC1` [Compound 392], greater than 16 µg/mL; under `NCCCNCc1ccc(-n2cc3c(nc2=O)Nc2ccc(-c4ccc(F)cc4)cc2O3)cc1` [Compound 393], greater than 16 µg/mL.
Under `NCCCNCc1ccc(-n2cc3c(nc2=O)Nc2cc(Br)ccc2O3)cc1` [Compound 396] stands greater than 16 µg/mL.
With `NCCCNCc1ccc(-n2cc3c(nc2=O)Nc2ccc(-c4cnc(N5CCOCC5)nc4)cc2O3)cc1` [Compound 400], the MIC is greater than 16 µg/mL.
Consider `NCCCNCc1ccc(-n2cc3c(nc2=O)Nc2cc(-c4ccc(F)cc4)ccc2O3)cc1` [Compound 402], for which the MIC is greater than 16 µg/mL.
Under `NCCCNCc1ccc(-c2cn3c(=O)cc(Cc4ccc(F)c(F)c4)[nH]c3nc2=O)cc1` [Compound 411] stands greater than 16 µg/mL.
Under `NCCCNCc1ccc(-c2cn3c(=O)cc(Cc4ccccc4OC(F)(F)F)[nH]c3nc2=O)cc1` [Compound 426] stands greater than 16 µg/mL; under `NCCCNCc1ccc(-c2cn3c(=O)cc(Cc4ccc(Cl)c(Cl)c4)[nH]c3nc2=O)cc1` [Compound 430], greater than 16 µg/mL; under `NCCCNCc1ccc(-n2cc3c(nc2=O)Nc2cc(-c4cnc(N5CCOCC5)nc4)ccc2O3)cc1` [Compound 440], greater than 16 µg/mL.
Under `NCCCNCc1ccc(-n2cc3c(nc2=O)Nc2ccc(Br)cc2O3)cc1` [Compound 442] stands greater than 16 µg/mL.
For `NCCCNCc1ccc(-c2cn3c(=O)cc(Cc4cccc([N+](=O)[O-])c4)[nH]c3nc2=O)cc1` [Compound 447], the MIC is greater than 16 µg/mL.
Under `NCCCNCc1ccc(-n2cc3c(nc2=O)Nc2ccc(C#Cc4ccc(F)cc4)cc2O3)cc1` [Compound 460] stands greater than 16 µg/mL.
Under `NCCCNCc1ccc(-c2cn3c(=O)cc(Cc4cc(F)c(F)cc4F)[nH]c3nc2=O)cc1` [Compound 469] stands greater than 16 µg/mL; under `NCCCN1CCC(n2cc3c(nc2=O)Nc2ccccc2O3)CC1` [Compound 528], greater than 16 µg/mL.
On to `N=C(N)NCCCN1CCC(n2cc3c(nc2=O)Nc2ccccc2O3)CC1` [Compound 529], for which the minimum inhibitory concentration (MIC) was greater than 16 µg/mL.
Under `NCCCCCN1CC[C@@H](n2cc3c(nc2=O)Nc2ccccc2O3)C1` [Compound 543] stands greater than 16 µg/mL.
Under `NCCCCCN1CCCC(n2cc3c(nc2=O)Nc2ccccc2O3)CC1` (centres unmarked) [Compound 544] stands greater than 16 µg/mL; under `NCCCCCN1CCC(n2cc3c(nc2=O)Nc2ccccc2O3)CC1` [Compound 557], greater than 16 µg/mL.

One may read the MIC as the lowest concentration that inhibits growth of the organism.
